Laboratory results as given in the RepoRT retention time repository.

experiment: HILIC, HILICON iHILIC-(P) Classic, HILIC, PEEK, 50 × 2.1 mm, 5 µm, 45 °C, 0.12 mL/min, estimated dead time 0.92 min; A: water + 20 mM ammonium carbonate; B: acetonitrile; gradient (min/%B) 0/90 1/90 21/20 21.5/20 26.5/20 27.5/90 35/90; conditions: stereoisomer not certain

Structure (SMILES) | LC retention time [min]
Nc1ncnc2c1ncn2C1OC(COP(=O)(O)OP(=O)(O)O)C(O)C1O (stereo not drawn) [ADP] | 12.2
Nc1ncnc2c1ncn2C1OC(COP(=O)(O)O)C(O)C1O (stereo not drawn) [AMP] | 8.49
Nc1ncnc2c1ncn2C1OC(COP(=O)(O)OP(=O)(O)OP(=O)(O)O)C(O)C1O (stereo not drawn) [ATP] | 13.6
CC(=O)SCCNC(=O)CCNC(=O)C(O)C(C)(C)COP(=O)(O)OP(=O)(O)OCC1OC(n2cnc3c(N)ncnc32)C(O)C1OP(=O)(O)O (stereo not drawn) [Acetyl-CoA] | 8.69
Nc1ccn(C2OC(COP(=O)(O)OP(=O)(O)O)C(O)C2O)c(=O)n1 (stereo not drawn) [CDP] | 13.2
O=C(O)CC(O)(CC(=O)O)C(=O)O [Citric acid] | 16.4
Nc1nc2c(ncn2C2OC(COP(=O)(O)OP(=O)(O)O)C(O)C2O)c(=O)[nH]1 (stereo not drawn) [GDP] | 15.2
NC(CCC(=O)NC(CSSCC(NC(=O)CCC(N)C(=O)O)C(=O)NCC(=O)O)C(=O)NCC(=O)O)C(=O)O (stereo not drawn) [GSSG] | 15.3
Nc1nc2c(ncn2C2OC(COP(=O)(O)OP(=O)(O)OP(=O)(O)O)C(O)C2O)c(=O)[nH]1 (stereo not drawn) [GTP] | 17.1
NC(CCC(=O)O)C(=O)O (stereo not drawn) [Glutamic acid] | 9.69
O=P(O)(O)OCC(O)CO (stereo not drawn) [Glycerol-3-phosphate] | 10.9
Nc1nc2c(ncn2C2OC(CO)C(O)C2O)c(=O)[nH]1 (stereo not drawn) [Guanosine] | 6.69
CCC(C)C(N)C(=O)O (stereo not drawn) [Isoleucine] | 5.72
CC(C)CC(N)C(=O)O (stereo not drawn) [Leucine] | 5.45
NCCCCC(N)C(=O)O (stereo not drawn) [Lysine] | 18.8
O=C(O)CC(O)C(=O)O (stereo not drawn) [Malic Acid] | 13.1
O=C(O)CC(=O)O [Malonic Acid] | 9.39
CC(=O)NC(CC(=O)O)C(=O)O (stereo not drawn) [N-Acetylaspartic acid] | 9.96
NC(=O)C1=CN(C2OC(COP(=O)(O)OP(=O)(O)OCC3OC(n4cnc5c(N)ncnc54)C(O)C3O)C(O)C2O)C=CC1 (stereo not drawn) [NADH] | 9.33
NC(=O)C1=CN(C2OC(COP(=O)(O)OP(=O)(O)OCC3OC(n4cnc5c(N)ncnc54)C(OP(=O)(O)O)C3O)C(O)C2O)C=CC1 (stereo not drawn) [NADPH] | 16.8
NC(=O)c1ccc[n+](C2OC(COP(=O)(O)OP(=O)(O)OCC3OC(n4cnc5c(N)ncnc54)C(O)C3O)C(O)C2O)c1 (stereo not drawn) [NAD] | 8.93
NCCCC(N)C(=O)O (stereo not drawn) [Ornithine] | 18.1
NC(CO)C(=O)O (stereo not drawn) [Serine] | 8.59
Cc1ncc(C[n+]2csc(CCO)c2C)c(N)n1 [Thiamine] | 13
CC(=O)NC1C(OP(=O)(O)OP(=O)(O)OCC2OC(n3ccc(=O)[nH]c3=O)C(O)C2O)OC(CO)C(O)C1O (stereo not drawn) [UDP-GlcNAc] | 11.7
O=c1ccn(C2OC(COP(=O)(O)OP(=O)(O)O)C(O)C2O)c(=O)[nH]1 (stereo not drawn) [UDP] | 12.2

The next lines start with the values.

LC retention time [min] | Structure (SMILES)
3.42 | Nc1ncnc2nc[nH]c12 [Adenine]
3.57 | Nc1ncnc2c1ncn2C1OC(CO)C(O)C1O (stereo not drawn) [Adenosine]
9.37 | O=C1OC(C(O)CO)C(O)=C1O (stereo not drawn) [Ascorbic Acid]
10.8 | NC(=O)CC(N)C(=O)O (stereo not drawn) [Asparagine]
3.35 | O=C(O)CCCCC1SCC2NC(=O)NC21 (stereo not drawn) [Biotin]
10.9 | Nc1ccn(C2OC(COP(=O)(O)O)C(O)C2O)c(=O)n1 (stereo not drawn) [CMP]
11.6 | NC(CSSCC(N)C(=O)O)C(=O)O (stereo not drawn) [Cystine]
5.92 | Nc1ccn(C2OC(CO)C(O)C2O)c(=O)n1 (stereo not drawn) [Cytidine]
14.3 | Nc1nc2ncc(CNc3ccc(C(=O)NC(CCC(=O)O)C(=O)O)cc3)nc2c(=O)[nH]1 (stereo not drawn) [Folic Acid]
16.3 | O=P(O)(O)OCC1OC(O)(COP(=O)(O)O)C(O)C1O (stereo not drawn) [Fructose-1,6-bisphosphate]
14.2 | Nc1nc2c(ncn2C2OC(COP(=O)(O)O)C(O)C2O)c(=O)[nH]1 (stereo not drawn) [GMP]
8.5 | NC(CCC(=O)NC(CS)C(=O)NCC(=O)O)C(=O)O (stereo not drawn) [GSH]
8.36 | NC(=O)CCC(N)C(=O)O (stereo not drawn) [Glutamine]
15.9 | O=C(O)CC(C(=O)O)C(O)C(=O)O (stereo not drawn) [Isocitric acid]
2.81 | CC(O)C(=O)O (stereo not drawn) [Lactic Acid]
5.91 | CSCCC(N)C(=O)O (stereo not drawn) [Methionine]

LC retention time [min] | Structure (SMILES)
13.5 | NC(=O)c1ccc[n+](C2OC(COP(=O)(O)OP(=O)(O)OCC3OC(n4cnc5c(N)ncnc54)C(OP(=O)(O)O)C3O)C(O)C2O)c1 (stereo not drawn) [NADP]
9.43 | NC(=O)c1ccc[n+](C2OC(COP(=O)([O-])O)C(O)C2O)c1 (stereo not drawn) [NMN]
1.66 | O=C(O)c1cccnc1 [Nicotinic acid]
13.7 | C=C(OP(=O)(O)O)C(=O)O [PEP]
4.97 | NC(Cc1ccccc1)C(=O)O (stereo not drawn) [Phenylalanine]
13.5 | O=C(O)C(CO)OP(=O)(O)O (stereo not drawn) [Phosphoglyceric acid A]
6.81 | O=C(O)C1CCCN1 (stereo not drawn) [Proline]
6.43 | O=C(O)C1(O)CC(O)C(O)C(O)C1 (stereo not drawn) [Quinic Acid]
11.8 | O=C(O)CCC(=O)O [Succinic Acid]
8.21 | CC(O)C(N)C(=O)O (stereo not drawn) [Threonine]
11.3 | O=C(CO)COP(=O)(O)O [Triose phosphate]
6.18 | NC(Cc1c[nH]c2ccccc12)C(=O)O (stereo not drawn) [Tryptophan]
6.98 | NC(Cc1ccc(O)cc1)C(=O)O (stereo not drawn) [Tyrosine]
9.52 | O=c1ccn(C2OC(COP(=O)(O)O)C(O)C2O)c(=O)[nH]1 (stereo not drawn) [UMP]
14.3 | O=c1ccn(C2OC(COP(=O)(O)OP(=O)(O)OP(=O)(O)O)C(O)C2O)c(=O)[nH]1 (stereo not drawn) [UTP]
6.71 | CC(C)C(N)C(=O)O (stereo not drawn) [Valine]
